Measured values from patent US11731985B2, “Compositions and methods for treating cancer” (Hb Therapeutics Inc., priority 2018, dated 2023).

test system: LN229 cells; assay: Cell viability assay, LN229 cells; assay type: cell-based, human; conditions: Homo sapiens, LN-229, LN229 cells, read-out: Inhibition of Cancer Cell Growth (IC50)
Protocol: Each of the compounds was used to treat the cancer LN229 cells and examined first by western and dot blot assays for the degradation of SUMO1 protein and then by cell viability assay for the IC50 values of anticancer activity.
LN229 cell were treated with a series of dilutions of CPD1 and examined by cell viability assay for cell growth inhibition (FIG. 2B). […] Therefore, CPD1 acts as the degrader of SUMO1 protein and inhibitor of SUMO1 conjugation in cancer cells.

Compound | IC50
O=C(Nc1ccc(Cl)c(Cl)c1)Nc1nc2ccc([N+](=O)[O-])cc2s1 [Compound 2] | ≤ 5 µM
O=C(Nc1cccc([N+](=O)[O-])c1)Nc1nc2ccc(Cl)cc2s1 [Compound 4] | ≤ 5 µM
O=C(Nc1ccc([N+](=O)[O-])cc1)Nc1nc2ccc(Cl)cc2s1 [Compound 6] | ≤ 5 µM
O=C(Nc1ccc(Cl)cc1)Nc1nc2ccccc2s1 [Compound 7] | > 20 µM
O=C(Nc1nc2ccccc2s1)Nc1ccccc1Cl [Compound 8] | > 20 µM
O=C(Nc1nc2ccccc2s1)Nc1ccc([N+](=O)[O-])cc1Cl [Compound 9] | > 20 µM
O=C(Nc1cccc([N+](=O)[O-])c1)Nc1nc2ccc(F)cc2s1 [Compound 10] | ≤ 5 µM
O=C(Nc1ccccc1)Nc1nc2ccccc2s1 [Compound 11] | > 20 µM
O=C(Nc1cccc([N+](=O)[O-])c1)Nc1nc2c(Cl)cccc2s1 [Compound 12] | ≤ 20 µM
N#Cc1ccc(NC(=O)Nc2nc3ccc(C(F)(F)F)cc3s2)cc1C#N [Compound 13] | > 20 µM
O=C(Nc1nc2ccc([N+](=O)[O-])cc2s1)Nc1c(Cl)cccc1Cl [Compound 14] | ≤ 20 µM
O=C(Nc1ccc(Cl)cc1)Nc1nc2cccc([N+](=O)[O-])c2s1 [Compound 15] | > 20 µM
O=C(Nc1nc2cccc([N+](=O)[O-])c2s1)Nc1ccc(Cl)cc1F [Compound 16] | > 20 µM
O=C(Nc1ccc(F)c([N+](=O)[O-])c1)Nc1nc2c(Cl)cccc2s1 [Compound 17] | > 20 µM
CS(=O)(=O)c1ccc2nc(NC(=O)Nc3cccc(Cl)c3)sc2c1 [Compound 20] | > 20 µM
O=C(Nc1cccc(Cl)c1)Nc1nc2ccc(Br)cc2s1 [Compound 21] | > 20 µM
Cc1nc2ccc(NC(=O)Nc3cccc([N+](=O)[O-])c3)cc2s1 [Compound 22] | ≤ 20 µM
N#Cc1ccc2nc(NC(=O)Nc3cccc([N+](=O)[O-])c3)sc2c1 [Compound 23] | ≤ 5 µM
O=C(Nc1nc2ccc([N+](=O)[O-])cc2s1)c1ccc(F)cc1 [Compound 25] | > 20 µM
O=C(Cc1ccc(Cl)cc1)Nc1nc2ccc([N+](=O)[O-])cc2s1 [Compound 26, 2-(4-chlorophenyl)-N-(6-nitro-1,3-benzothiazol-2-yl)acetamide] | ≤ 20 µM

Compound | IC50
O=C(Nc1cccc(C(=O)O)c1)Nc1nc2ccc([N+](=O)[O-])cc2s1 [Compound 27] | > 20 µM
COC(=O)c1ccc2nc(NC(=O)Nc3cccc([N+](=O)[O-])c3)sc2c1 [Compound 28] | ≤ 20 µM
O=C1N(c2cccc(Cl)c2)CCCN1c1nc2ccc([N+](=O)[O-])cc2s1 [Compound 29] | > 20 µM
N#Cc1ccc2nc(NC(=O)Nc3cccc(Br)c3)sc2c1 [Compound 31, 1-(3-bromophenyl)-3-(6-cyano-1,3-benzothiazol-2-yl)urea] | ≤ 5 µM
N#Cc1ccc2nc(NC(=O)Nc3cccc(-c4ccc(F)cc4)c3)sc2c1 [Compound 32, 1-(6-cyano-1,3-benzothiazol-2-yl)-3-[3-(4-fluorophenyl)phenyl]urea] | ≤ 5 µM
COc1ccc(-c2cccc(NC(=O)Nc3nc4ccc(C#N)cc4s3)c2)cc1 [Compound 33] | ≤ 5 µM
Cc1ccc(-c2cccc(NC(=O)Nc3nc4ccc(C#N)cc4s3)c2)cc1 [Compound 34] | ≤ 5 µM
Cc1ccc(NC(=O)Nc2nc3ccc(C#N)cc3s2)nc1 [Compound 35] | > 20 µM
N#Cc1ccc2nc(NC(=O)Nc3ccc(Br)cc3)sc2c1 [Compound 36] | ≤ 5 µM
N#Cc1ccc2nc(NC(=O)Nc3cc(Cl)cc(Cl)c3)sc2c1 [Compound 37] | ≤ 5 µM
COc1cccc(NC(=O)Nc2nc3ccc(C#N)cc3s2)c1 [Compound 38] | ≤ 5 µM
CC(C)(C)c1ccc(NC(=O)Nc2nc3ccc(C#N)cc3s2)cc1 [Compound 40] | > 20 µM
N#Cc1ccc2nc(NC(=O)Nc3ccc(Cl)c(Cl)c3)sc2c1 [Compound 41] | ≤ 5 µM
N#Cc1cccc(NC(=O)Nc2nc3ccc(Cl)cc3s2)c1 [Compound 42] | ≤ 5 µM
COc1ccc2nc(NC(=O)Nc3cccc(C#N)c3)sc2c1 [Compound 43] | ≤ 20 µM
Cc1ccc2nc(NC(=O)Nc3cccc(C#N)c3)sc2c1 [Compound 44] | > 20 µM
N#Cc1ccc2nc(NC(=O)Nc3ccccc3)sc2c1 [Compound 45] | ≤ 5 µM
N#Cc1cccc(NC(=O)NC2Cc3ccccc3C2)c1 [Compound 46] | > 20 µM
N#Cc1cccc(NC(=O)N2CCc3ccccc3C2)c1 [Compound 47] | > 20 µM
N#Cc1cccc(NC(=O)Nc2nc3ccccc3s2)c1 [Compound 48] | ≤ 20 µM

Compound | IC50
CC(C)(C)OC(=O)N1CCc2nc(NC(=O)Nc3cccc(C#N)c3)sc2C1 [Compound 49] | ≤ 20 µM
N#Cc1cccc(NC(=O)Nc2nc3c(s2)CNCC3)c1 [Compound 50] | ≤ 20 µM
N#Cc1ccc2nc(NC(=O)Nc3ccccc3C(F)(F)F)sc2c1 [Compound 51] | ≤ 20 µM
CN1CCc2nc(NC(=O)Nc3cccc(C#N)c3)sc2C1 [Compound 52] | > 20 µM
CCOC(=O)c1ccc2nc(NC(=O)Nc3cccc(C#N)c3)sc2c1 [Compound 53] | ≤ 5 µM
CC(C(=O)Nc1nc2ccc(C#N)cc2s1)c1ccccc1 (centres unmarked) [Compound 54] | > 20 µM
Cc1ccc(C(C)C(=O)Nc2nc3ccc(C#N)cc3s2)cc1 (centres unmarked) [Compound 55] | ≤ 20 µM
CC(C)(C(=O)Nc1nc2ccc(C#N)cc2s1)c1ccccc1 [Compound 56] | > 20 µM
N#Cc1ccc2nc(NC(=O)C3(c4ccccc4)CC3)sc2c1 [Compound 57] | > 20 µM
N#Cc1cccc(NC(=O)Nc2nc3c(s2)COCC3)c1 [Compound 58] | ≤ 20 µM
N#Cc1cccc(NC(=O)Nc2nc3c(s2)CCCC3)c1 [Compound 59] | ≤ 20 µM
N#Cc1cccc(NC(=O)Nc2nc3ccc(C(=O)N4CCOCC4)cc3s2)c1 [Compound 60] | > 20 µM
CC(C)(C)OC(=O)NC1CCc2nc(NC(=O)Nc3cccc(C#N)c3)sc2C1 (centres unmarked) [Compound 61] | ≤ 5 µM
CC(C)(C)OC(=O)N[C@@H]1CCc2nc(NC(=O)Nc3cccc(C#N)c3)sc2C1 [Compound 62] | ≤ 5 µM
CC(C)(C)OC(=O)N[C@H]1CCc2nc(NC(=O)Nc3cccc(C#N)c3)sc2C1 [Compound 63] | ≤ 20 µM
CN(C)C(=O)c1ccc2nc(NC(=O)Nc3cccc(C#N)c3)sc2c1 [Compound 64] | > 20 µM
CC(=O)N1CCc2nc(NC(=O)Nc3cccc(C#N)c3)sc2C1 [Compound 65] | > 20 µM
N#Cc1cccc(NC(=O)Nc2nc3ccc(C#N)cc3s2)c1 [Compound 66] | ≤ 5 µM
N#Cc1cccc(NC(=O)Nc2nc3c(s2)CC(N)CC3)c1 (centres unmarked) [Compound 67] | ≤ 20 µM
COc1cccc(NC(=O)Nc2nc3ccc(C#N)cc3s2)n1 [Compound 68] | > 20 µM

same assay, conditions: LN229 cells, read-out: Inhibition of Cancer Cell Growth (IC50)

Compound | IC50
O=C(Nc1cccc(Cl)c1)Nc1nc2ccc([N+](=O)[O-])cc2s1 [Compound 3] | ≤ 5 µM
O=C(Nc1ccc(Cl)cc1)Nc1nc2ccc([N+](=O)[O-])cc2s1 [Compound 5] | ≤ 5 µM
O=C(Nc1ccc(Cl)cc1)Nc1nc2ccc([N+](=O)[O-])cc2s1 [Compound 18] | > 20 µM
O=C(Nc1cccc(Cl)c1)Nc1nc2ccc([N+](=O)[O-])cc2s1 [Compound 19] | > 20 µM
CCc1ccc(NC(=O)Nc2nc3ccc(C#N)cc3s2)cc1 [Compound 39] | ≤ 5 µM
